Data published in patent publication US12421270B2, “Oligosaccharide, preparation method therefor, composition thereof and use thereof” (YANTAI DONGCHENG BIOCHEMICALS CO., LTD, priority 2018, dated 2025).

Experiments:
Format in all cases: biochemical
platelet-poor plasma [1] = experiment: PT assay (prothrombin time), anticoagulant activity test; conditions: 37° C., fibrin formation time
Protocol: (§1) Oligosaccharide compounds of the present application, J1 (a compound of formula J, in which Y=Na, q=1, R is azido, and ? is in β configuration), J2 (a compound of formula J, in which Y=Na, q=2, R is azido, and ? is in β configuration), J3 (a compound of formula J, in which Y=Na, q=3, R is azido, and ? is in β configuration), and J4 (a compound of formula J, in which Y=Na, q=4, R is azido, and ? is in β configuration) were assayed for anticoagulant activity, including activated partial thrombin time (APTT), prothrombin time (PT) and thrombin time (TT).
(§2) The whole experiment was carried out according to the instruction of the PT kit. Firstly, 20 ul of platelet-poor plasma and 5 ul of the solution to be tested (control or sample solution) were mixed into a test cup and incubated in preheating zone at 37° C. for 3 min. Then the test cup was moved to the test zone, and 50 ul of preheated PT reagent was added (preheating time is longer than 10 min, but not more than 30 min). At the same time, recording of fibrin formation time was immediately initiated, and when the experiment was completed, the fibrin formation time was read from the coagulation analyzer.
(§3) Results of the assays are as follows (data in the table represent the concentration required to double APTT/PT/TT): […]

platelet-poor plasma [2] = experiment: TT assay (thrombin time), anticoagulant activity test; conditions: 37° C., fibrin formation time, last column of table
Protocol: as §1
as §2, with “TT” for “PT”
as §3

platelet-poor plasma [3] = experiment: APTT assay (activated partial thrombin time), anticoagulant activity test; conditions: 37° C., fibrin formation time
Protocol: as §1
The whole experiment was carried out according to the instruction of the APTT kit. Firstly, 20 ul of platelet-poor plasma and 5 ul of the solution to be tested (control or sample solution) were mixed into a test cup and incubated in preheating zone at 37° C. for 3 min. Then 25 ul of APTT reagent was added to the mixed system, and then continued to incubate at 37° C. for 3 min. Next, the test cup was moved to the test zone, and 25 ul of calcium chloride solution preheated for 5 min was added. At the same time, recording of fibrin formation time was immediately initiated, and when the experiment was completed, the fibrin formation time was read from the coagulation analyzer.
as §3

**Q.** How did the “PT (concentration required to double PT)” value (platelet-poor plasma [1]) turn out when “azido{(2,4-di-O-sulfo-α-L-fucosyl)-(1→3)-(β-D-glucopyranosyluronic acid)-(1→3)-(4,6-di-O-sulfo-2-deoxy-2-N-acetamino-β-D-galactopyranosyl)-(1→4)-[(2,4-di-O-sulfo-α-L-fucosyl)-(1→3)-(β-D-glucopyranosyluronic acid)-(1→3)-(4,6-di-O-sulfo-2-deoxy-2-N-acetamido-β-D-galactopyranosyl)]} decasodium salt [Compound J1]” was run?
**A.** >128 µg/mL

**Q.** And the “Concentration required to double TT” value (platelet-poor plasma [2])?
**A.** >128 µg/mL

**Q.** And the “APTT (concentration required to double APTT)” value (platelet-poor plasma [3])?
**A.** 120.39 µg/mL
